By IC50 is commonly meant the midpoint of a concentration-inhibition curve.

Molecules are shown by their SMILES. Values joined by “and” are separate entries in the source; they are usually repeats but may differ in a detail not shown here. Equal entries are not always repeated.

Test [1] deals with PI3Kα (Homo sapiens, UniProt P42336). Put plainly: PI3K kinase activity inhibition assay. The note with it: Kinase-Glo Plus ATP detection, read-out: IC50 against PI3K. It is filed as biochemical. The procedure, abridged: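 PI3Kα (50 nM solution) was reacted with 30 μM ATP and 45 μM PIP2 solutions, each in HEPES pH 7.4 with MgCl2 and DTT, for 2 h at room temperature. Remaining ATP was measured by Kinase-Glo Plus luminescence, and inhibition was derived from ATP consumed. IC50 was taken from curve fitting of the serial dilutions.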
Sequence of PI3Kα (P42336 whole entry, species assumed): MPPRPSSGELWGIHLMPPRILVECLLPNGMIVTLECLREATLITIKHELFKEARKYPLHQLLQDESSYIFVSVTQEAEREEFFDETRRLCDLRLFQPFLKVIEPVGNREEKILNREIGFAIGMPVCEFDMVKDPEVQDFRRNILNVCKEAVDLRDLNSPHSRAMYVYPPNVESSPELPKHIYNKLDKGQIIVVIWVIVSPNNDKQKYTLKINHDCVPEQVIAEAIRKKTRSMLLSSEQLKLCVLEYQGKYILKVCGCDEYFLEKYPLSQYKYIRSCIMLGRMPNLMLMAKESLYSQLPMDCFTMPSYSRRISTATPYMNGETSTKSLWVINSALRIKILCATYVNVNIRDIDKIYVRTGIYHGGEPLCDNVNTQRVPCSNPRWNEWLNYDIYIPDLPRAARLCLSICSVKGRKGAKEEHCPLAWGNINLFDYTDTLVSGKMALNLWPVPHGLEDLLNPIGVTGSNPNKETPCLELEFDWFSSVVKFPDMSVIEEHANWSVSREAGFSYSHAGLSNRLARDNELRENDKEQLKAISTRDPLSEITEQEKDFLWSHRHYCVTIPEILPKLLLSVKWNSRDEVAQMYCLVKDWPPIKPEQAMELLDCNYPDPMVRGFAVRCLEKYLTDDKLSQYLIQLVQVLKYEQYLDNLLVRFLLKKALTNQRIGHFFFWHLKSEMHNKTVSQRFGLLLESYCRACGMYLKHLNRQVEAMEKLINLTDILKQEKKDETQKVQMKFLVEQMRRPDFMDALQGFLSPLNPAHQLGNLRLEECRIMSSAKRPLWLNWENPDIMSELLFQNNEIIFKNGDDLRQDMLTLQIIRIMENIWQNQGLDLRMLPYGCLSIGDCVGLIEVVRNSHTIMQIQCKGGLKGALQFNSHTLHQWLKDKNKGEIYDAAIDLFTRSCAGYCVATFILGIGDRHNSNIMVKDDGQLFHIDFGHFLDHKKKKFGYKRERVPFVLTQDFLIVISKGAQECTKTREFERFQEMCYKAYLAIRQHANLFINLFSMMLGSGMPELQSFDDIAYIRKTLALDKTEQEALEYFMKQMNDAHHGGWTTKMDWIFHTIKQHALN
Sequence of PI3Kα (P27986 whole entry partner, species assumed): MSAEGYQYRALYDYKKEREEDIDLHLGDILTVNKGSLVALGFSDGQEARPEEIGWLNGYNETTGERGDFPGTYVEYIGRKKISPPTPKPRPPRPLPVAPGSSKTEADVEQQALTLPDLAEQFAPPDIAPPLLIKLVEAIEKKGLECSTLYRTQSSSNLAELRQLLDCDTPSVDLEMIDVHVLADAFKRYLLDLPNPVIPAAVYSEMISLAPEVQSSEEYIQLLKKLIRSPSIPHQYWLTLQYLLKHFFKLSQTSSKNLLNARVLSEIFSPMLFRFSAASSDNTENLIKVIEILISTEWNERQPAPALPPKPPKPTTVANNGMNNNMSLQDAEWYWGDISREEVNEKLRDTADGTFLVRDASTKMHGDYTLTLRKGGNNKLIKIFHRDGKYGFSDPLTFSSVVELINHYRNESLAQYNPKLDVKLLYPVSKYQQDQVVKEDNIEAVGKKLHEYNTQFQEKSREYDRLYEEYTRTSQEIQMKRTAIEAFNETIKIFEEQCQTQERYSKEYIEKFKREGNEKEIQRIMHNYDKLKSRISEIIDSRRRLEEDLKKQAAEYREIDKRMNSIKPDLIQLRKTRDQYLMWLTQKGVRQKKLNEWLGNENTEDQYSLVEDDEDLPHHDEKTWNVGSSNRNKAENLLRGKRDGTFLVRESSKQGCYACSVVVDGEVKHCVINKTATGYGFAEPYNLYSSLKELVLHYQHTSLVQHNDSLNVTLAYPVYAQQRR
(In general: In Kinase-Glo more light means more ATP remaining.)

Test [2] deals with T1, human mTOR (His-tagged mTOR (1362C)) (Homo sapiens, UniProt P42345).
T1 construct: the 1362 to 2549 amino acid portion on the C terminus side of human mTOR; His tag (N); made in house
T1 sequence (P42345 1362-2549): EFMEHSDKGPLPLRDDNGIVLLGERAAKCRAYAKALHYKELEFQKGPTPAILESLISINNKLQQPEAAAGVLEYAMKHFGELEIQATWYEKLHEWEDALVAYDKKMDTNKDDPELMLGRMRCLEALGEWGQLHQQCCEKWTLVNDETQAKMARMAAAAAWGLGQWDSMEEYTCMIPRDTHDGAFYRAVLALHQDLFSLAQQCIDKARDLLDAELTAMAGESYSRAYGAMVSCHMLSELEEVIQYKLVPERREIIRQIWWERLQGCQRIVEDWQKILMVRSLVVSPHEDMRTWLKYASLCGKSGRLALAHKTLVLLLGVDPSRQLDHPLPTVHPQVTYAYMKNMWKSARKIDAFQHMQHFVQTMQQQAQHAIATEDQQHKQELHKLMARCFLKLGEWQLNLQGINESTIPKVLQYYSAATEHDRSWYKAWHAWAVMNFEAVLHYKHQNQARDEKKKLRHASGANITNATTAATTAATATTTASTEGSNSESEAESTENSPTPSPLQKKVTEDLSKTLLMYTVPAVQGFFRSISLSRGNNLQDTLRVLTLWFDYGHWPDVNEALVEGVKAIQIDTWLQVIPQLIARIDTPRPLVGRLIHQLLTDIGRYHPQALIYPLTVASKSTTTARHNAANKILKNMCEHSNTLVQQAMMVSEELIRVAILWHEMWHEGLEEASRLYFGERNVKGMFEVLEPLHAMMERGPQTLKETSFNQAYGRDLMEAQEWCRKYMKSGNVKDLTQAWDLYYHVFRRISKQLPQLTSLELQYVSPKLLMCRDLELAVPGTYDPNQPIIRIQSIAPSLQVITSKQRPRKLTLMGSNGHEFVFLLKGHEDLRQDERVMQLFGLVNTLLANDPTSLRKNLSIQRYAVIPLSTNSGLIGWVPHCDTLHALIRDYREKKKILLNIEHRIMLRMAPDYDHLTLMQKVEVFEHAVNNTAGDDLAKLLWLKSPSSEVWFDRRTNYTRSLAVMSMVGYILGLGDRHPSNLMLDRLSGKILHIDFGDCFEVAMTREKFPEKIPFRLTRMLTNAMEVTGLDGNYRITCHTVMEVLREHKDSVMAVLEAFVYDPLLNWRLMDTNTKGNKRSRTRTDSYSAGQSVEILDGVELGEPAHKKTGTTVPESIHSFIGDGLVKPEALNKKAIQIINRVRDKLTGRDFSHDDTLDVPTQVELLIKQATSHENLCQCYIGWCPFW
Put plainly: mTOR kinase activity inhibition assay. The following applies: HTRF, read-out: IC50 against mTOR. It is filed as biochemical. In a few lines: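 Crude His-tagged mTOR (aa 1362–2549) from stable HEK293 cells, with 8 μg/ml biotinylated peptide in 50 mM HEPES pH 7.5, 20 mM MnCl2; compound diluted in 20 μM ATP solution, reaction 3 h at room temperature. Phospho-peptide detected by HTRF (anti-phospho-S6K Thr389 cryptate/streptavidin-XL665, overnight at 4°C), 665/620 nm ratio. IC50 derived from curve fit of % inhibition.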

For test [3], the system named is human endometrial cancer cell strain AN3CA. Put plainly: Cell growth inhibition test (MTT), AN3CA. The note with it: AN3-CA, 72 h, 3 days culture, read-out: concentration exhibiting anti-cell effect (GI50). It is filed as cell-based. The procedure, abridged: (§1)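 AN3CA, IGROV1 and HT29 seeded at 5000, 1000 and 5000 cells/well; compound added next day, 3 days at 37° C, 5% CO2. MTT 4 h, formazan in DMSO read at 540 nm. GI50 is the concentration giving 50% growth rate (T/C %, corrected for day-of-addition absorbance), interpolated between two bracketing concentrations.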

Test [4] relates to human ovary cancer cell strain IGROV1. Put plainly: Cell growth inhibition test (MTT), IGROV1. It is filed as cell-based. The following applies: IGROV-1, 72 h, IGROV1, 3 days culture, read-out: concentration exhibiting anti-cell effect (GI50). In a few lines: as §1
Test [5] concerns human colon cancer cell strain HT29. Put plainly: Cell growth inhibition test (MTT), HT29. It is filed as cell-based. The note with it: HT-29, 72 h, HT29, 3 days culture, read-out: concentration exhibiting anti-cell effect (GI50). In a few lines:
as §1

Test [6] relates to human endometrial cancer cell strain AN3CA tumor. The test can be described thus: Anti-tumor effect assay using mouse subcutaneous transplantation model. It is filed as in vivo, female nude mouse. The note with it: AN3-CA, oral, tumor weight vs negative control, read-out: Anti-tumor effect (tumor growth inhibition rate). Here is the method:
A tumor section was prepared from a human endometrial cancer cell strain AN3CA tumor mass formed in a female nude mouse as a subcutaneously transplanted tumor and then a xenograft model was prepared by transplanting the tumor section into female nude mouse. Tumor-bearing mice having an estimated tumor volume (long diameter×short diameter×short diameter/2) of 80 to 200 mm^3 were divided, so that there should be no significant difference in the mean estimated tumor volume and body weight as compared with the negative control group to perform a test. The test compound was orally administered at a predetermined dose for 8 consecutive days. On the following day of the final administration day, tumor-bearing mice were anesthetized and exsanguinated to death and a tumor mass was isolated to measure tumor weight (the compounds of Examples 1, 3, 6, 8, 11, 12, and 14). Furthermore, as a similar test, the test compound was orally administered for 5 consecutive days, animals were sacrificed on the final administration day, and tumor weight was measured (the compounds of Examples 60, 63, 75, 77, 79, 89, 92, 107, 108, 109, 110, and 127).
In all the tests, anti-tumor effect was calculated by the following formula. {1−(tumor weight in compound treatment group/tumor weight in negative control group)}×100

As for `Cc1nc(N)ncc1-c1nc(N2CCOCC2)c2nc(N3CCC(N(C)S(C)(=O)=O)C3)n(CC3CC3)c2n1` (stereo not drawn) [Example 34, N-{1-[2-(2-Amino-4-methylpyrimidin-5-yl)-9-(cyclopropylmethyl)-6-morpholin-4-yl-9H-purin-8-yl]pyrrolidin-3-yl}-N-methylmethanesulfonamide], the concentration for half-maximal inhibition (IC50) lay within 10 to 20 nM in test [1] and 100 to 500 nM in test [2]. In addition, the GI50 in test [3], in test [4] and in test [5] was at most 5 µM throughout.
Consider `Nc1ncc(-c2nc(N3CCOCC3)c3nc(NCCO)n(CC4CC4)c3n2)cn1` [Example 30, 2-{[2-(2-Aminopyrimidin-5-yl)-9-(cyclopropylmethyl)-6-morpholin-4-yl-9H-purin-8-yl]amino}ethanol], for which the IC50 in test [1] lay within 10 to 20 nM; in test [2], 30 to 100 nM. Further, the GI50 in test [3], in test [4] and in test [5] was at most 5 µM in each case.
`C[C@@H]1CN(c2nc3c(N4CCOCC4)nc(-c4cnc(N)nc4)nc3n2CC2CC2)C[C@H](C)N1S(C)(=O)=O` [Example 38, 5-{9-(Cyclopropylmethyl)-8-[cis-3,5-dimethyl-4-(methylsulfonyl)piperazin-1-yl]-6-morpholin-4-yl-9H-purin-2-yl}pyrimidin-2-amine]: the values for the concentration for half-maximal inhibition (IC50) in test [1] and in test [2] were 10 to 20 nM and 10 to 30 nM, respectively. Also, the GI50 in test [3], in test [4] and in test [5] was at most 5 µM in each case.
On to `C[C@@H]1CN(c2nc3c(N4CCOCC4)nc(-c4cnc(N)nc4)nc3n2CC(F)(F)F)CCN1C(=O)CO` [Example 126, 2-{(2R)-4-[2-(2-Aminopyrimidin-5-yl)-6-morpholin-4-yl-9-(2,2,2-trifluoroethyl)-9H-purin-8-yl]-2-methylpiperazin-1-yl}-2-oxoethanol], for which the 50% inhibitory concentration (IC50) in test [1] and in test [2] was below 10 nM throughout. Besides, the GI50 in test [3], in test [4] and in test [5] was at most 5 µM throughout.
Consider `CC(C)Cn1c(N2C[C@H](C)NC[C@H]2C)nc2c(N3CCOCC3)nc(-c3cnc(N)nc3)nc21` (relative stereo) [Example 50, 5-[8-(trans-2,5-Dimethylpiperazin-1-yl)-9-isobutyl-6-morpholin-4-yl-9H-purin-2-yl]pyrimidin-2-amine], for which the IC50 fell in the range of 10 to 20 nM in test [1] and 30 to 100 nM in test [2]. Moreover, the GI50 in test [3], in test [4] and in test [5] was at most 5 µM throughout.
On to `C[C@H]1CN(c2nc3c(N4CCOCC4)nc(-c4cnc(N)nc4)nc3n2CC(F)(F)F)CCN1C(=O)CO` [Example 125, 2-{(2S)-4-[2-(2-Aminopyrimidin-5-yl)-6-morpholin-4-yl-9-(2,2,2-trifluoroethyl)-9H-purin-8-yl]-2-methylpiperazin-1-yl}-2-oxoethanol], for which the IC50 in test [1] and in test [2] was below 10 nM in each case. Moreover, the GI50 in test [3], in test [4] and in test [5] was at most 5 µM each time.
Turning to `C[C@@H]1CN(c2nc3c(N4CCOCC4)nc(-c4cnc(N)nc4)nc3n2CC2CC2)C[C@H](C)N1` [Example 12, 5-{9-(Cyclopropylmethyl)-8-(cis-3,5-dimethylpiperazin-1-yl)-6-morpholin-4-yl-9H-purin-2-yl}pyrimidin-2-amine], in test [1], the IC50 is 10 to 20 nM and 20 to 50 nM. In addition, the GI50 in test [3], in test [4] and in test [5] was at most 5 µM throughout. For the same compound, the inhibition in vivo at 10 mg/kg/day in test [6] (10 mg/kg/day, 8 or 5 consecutive days depending on compound) is 61%. Further, the inhibition in vivo at 20 mg/kg/day in test [6] (20 mg/kg/day, consecutive days) worked out at 71%.
As to `CC(=O)N1CCN(c2nc3c(N4CCOCC4)nc(-c4cnc(N)nc4)nc3n2CC(F)(F)F)CC1(C)C` [Example 122, 5-[8-(4-Acetyl-3,3-dimethylpiperazin-1-yl)-6-morpholin-4-yl-9-(2,2,2-trifluoroethyl)-9H-purin-2-yl]pyrimidin-2-amine], the IC50 in test [1] and in test [2] was below 10 nM throughout. For the same compound, the GI50 in test [3], in test [4] and in test [5] was at most 5 µM each time.
Regarding `CC1(C)CN(c2nc3c(N4CCOCC4)nc(-c4cnc(N)nc4)nc3n2CC(F)(F)F)CCN1C(=O)CO` [Example 123], the IC50 in test [1] is 10 to 20 nM; in test [2] it was below 10 nM. In addition, the GI50 in test [3], in test [4] and in test [5] was at most 5 µM in each case.
As for `Cc1nc(N)ncc1-c1nc(N2CCOCC2)c2nc(NCCN(C)C)n(CC3CC3)c2n1` [Example 21, N′-[2-(2-Amino-4-methylpyrimidin-5-yl)-9-(cyclopropylmethyl)-6-morpholin-4-yl-9H-purin-8-yl]-N,N-dimethylethane-1,2-diamine], the IC50 was 10 to 20 nM in test [1] and at least 500 nM in test [2]. Further, the GI50 in test [3], in test [4] and in test [5] was at most 5 µM in each case.
On to `CNc1ncc(-c2nc(N3CCOCC3)c3nc(N4CCOCC4)n(CC4CCOC4)c3n2)cn1` (stereo not drawn) [Example 24, 5-[6,8-Dimorpholin-4-yl-9-(tetrahydrofuran-3-ylmethyl)-9H-purin-2-yl]-N-methylpyrimidin-2-amine], for which the IC50 was 50 to 100 nM in test [1] and 100 to 500 nM in test [2]. Also, the GI50 in test [3], in test [4] and in test [5] was at most 5 µM each time.
On to `CC(C)Cn1c(N2CCN[C@H](C)C2)nc2c(N3CCOCC3)nc(-c3cnc(N)nc3)nc21` [Example 52, 5-{9-Isobutyl-8-[(3R)-3-methylpiperazin-1-yl]-6-morpholin-4-yl-9H-purin-2-yl}pyrimidin-2-amine], for which the IC50 is below 10 nM in test [1] and 30 to 100 nM in test [2]. Further, the GI50 in test [3], in test [4] and in test [5] was at most 5 µM in each case.
Take `CNc1ncc(-c2nc(N3CCOCC3)c3nc(N4CCN(S(C)(=O)=O)CC4)n(CC4CC4)c3n2)c(C)n1` [Example 43]: the half-maximal inhibitory concentration (IC50) lay within 10 to 20 nM in test [1] and 100 to 500 nM in test [2]. For the same compound, the GI50 in test [3], in test [4] and in test [5] was at most 5 µM each time.
Regarding `CC(C)Cn1c(N2CCN[C@@H](C)C2)nc2c(N3CCOCC3)nc(-c3cnc(N)nc3)nc21` [Example 51, 5-{9-Isobutyl-8-[(3S)-3-methylpiperazin-1-yl]-6-morpholin-4-yl-9H-purin-2-yl}pyrimidin-2-amine], the IC50 was in the range of 10 to 20 nM in test [1] and 10 to 30 nM in test [2]. Also, the GI50 in test [3], in test [4] and in test [5] was at most 5 µM in each case.
Consider `CNc1ncc(-c2nc(N3CCOCC3)c3nc(N4CCOCC4)n(CC4CC4)c3n2)cn1` [Example 39, 5-[9-(Cyclopropylmethyl)-6,8-dimorpholin-4-yl-9H-purin-2-yl]-N-methylpyrimidin-2-amine], for which the IC50 in test [1] is below 10 nM; in test [2], 30 to 100 nM. In addition, the GI50 in test [3], in test [4] and in test [5] was at most 5 µM each time.
In the case of `C[C@@H]1CN(c2nc3c(N4CCOCC4)nc(-c4cnc(N)nc4)nc3n2CC2CC2)CCN1` [Example 94, 5-{9-(Cyclopropylmethyl)-8-[(3R)-3-methylpiperazin-1-yl]-6-morpholin-4-yl-9H-purin-2-yl}pyrimidin-2-amine], the results for the IC50 in test [1] and in test [2] were below 10 nM and 10 to 30 nM, respectively. Further, the GI50 in test [3], in test [4] and in test [5] was at most 5 µM each time.

Source of the values: patent US8309546B2, “Morpholinopurine derivatives” (Daiichi Sankyo Company, Limited, priority 2008, dated 2012).
